Experimental data taken from a melting point compilation (Tetko et al.; mined from patent text by program, amines drawn as free bases though some values may be those of a salt).
Residues, ends and D or L forms follow the SMILES beside them.

Row | melting point | SMILES
1 | 108 to 109 °C | CC1(C)CC(=O)c2ccc(C#Cc3cccnc3)nc2C1
2 | 256 °C | Oc1ccc(-c2nnc(-c3ccccc3)o2)cc1
3 | 98 to 101 °C | O=C(N1CCNc2ccccc2C1)n1ccnc1
4 | 152 to 154 °C | O=C(NC1CCCc2sccc21)N1CCOCC1 (stereo not drawn)
5 | 145 to 146 °C | Cc1oc(-c2ccccc2)nc1CCC(=O)c1ccc(CC2SC(=O)NC2=O)cc1 (stereo not drawn)
6 | > 300 °C | CC1CC(=O)NN=C1c1ccc(NC2=CC(=O)CC2)cc1 (stereo not drawn)
7 | 130 to 132 °C | Cc1cccc(-c2[nH]c(C(C)C)nc2-c2ccc(F)c(-c3ccc(C(=O)NC4CCOCC4)cc3)c2)n1
8 | > 300 °C | N#Cc1cccc(-c2ccc3c(Cl)cnc(Cl)c3c2)c1
9 | 284 to 287 °C | O=C1Nc2cccc(Cl)c2C(=O)N2C[C@H](O)C[C@@H]12
10 | 168 to 170 °C | CC(C)(C)OC(=O)N1CCC(c2ccc(N3C[C@H](CNC(=O)C(Cl)Cl)OC3=O)cc2F)CC1
11 | 138 to 140 °C | COc1ccc(C2SCc3c(sc(N)c3C(=O)c3cccs3)S2)cc1 (stereo not drawn)
12 | 130 to 135 °C | CCn1nccc1Nc1cc(OC)ccc1C(=O)O
13 | 153 to 154 °C | COc1cc(C2CCN(C(=O)OC(C)(C)C)CC2)cnc1COc1ccc(S(C)(=O)=O)cc1
14 | 239 to 240 °C | CC(NC(=O)C(O)c1cc(F)cc(F)c1)C(=O)Nc1ccc2c(c1)NC(=O)Cc1cccn1-2 (stereo not drawn)
15 | 185 °C | CC(C)(C)[Si](Oc1ccc2[nH]c(=O)oc(=O)c2c1)(c1ccccc1)c1ccccc1
16 | 116 to 120 °C | CCOC(=O)C1CCn2c(cc3ccccc32)C1O (stereo not drawn)
17 | 150 to 152 °C | CC(CC(=O)O)NC(=O)c1ccccc1 (stereo not drawn)
18 | 247 to 249 °C | O=C1CCC(N2C(=O)c3cccc(OCc4cc5ccccc5s4)c3C2=O)C(=O)N1 (stereo not drawn)
19 | 176 to 178 °C | CCCCCCCNC(=O)Nc1ccc(-n2cccn2)cc1C(=O)NCC1CCN(C(c2ccccc2)c2ccccc2)CC1
20 | 131 to 134 °C | O=C(O)Cc1ccccc1OCCNC(=O)C1Cc2ccccc2N1S(=O)(=O)c1ccc(-c2cccc(C(F)(F)F)c2)cc1 (stereo not drawn)

Row | melting point | SMILES
21 | 106 to 108 °C | Cc1ccccc1C(=O)N1CCC(=O)c2ccc(Cl)cc21
22 | 243 to 245 °C | Fc1ccc(Oc2ccc(-c3nc4ccccc4[nH]3)cc2)cc1
23 | 178 °C | COc1ccc2cccc(N3C(=O)CN(Cc4ccccc4)CC3=O)c2c1
24 | 208 to 211 °C | Cc1ccc(C(=O)Nc2cc(N3CCOCC3)cc(C(F)(F)F)c2)cc1Nc1nccc(-c2cccnc2)n1
25 | 116 °C | CCOC(=O)c1nn(-c2ccc(Cl)cc2Cl)c(-c2ccc(Br)cc2)c1CBr
26 | 196 to 198 °C | O=C1CCC(N2C(=O)c3cccc(OCc4ccc(CN5CC6CCC(C5)O6)cc4)c3C2=O)C(=O)N1 (stereo not drawn)
27 | 113 to 114 °C | CCOC(=O)N=P(c1ccccc1)(c1ccccc1)c1ccccc1C
28 | 178 to 183 °C | CCC(=O)NNC(=O)NCCOc1ccccc1
29 | 153 to 154 °C | COc1cc(C(F)(F)F)nn1-c1ccc(NC(=O)c2cccnc2F)cc1
30 | 253 to 254 °C | Cc1nnc(C=Cc2ccccc2O)s1
31 | 86 to 88 °C | CC(=O)c1cccc2nc(SCCCN3CCCN(CC(=O)Nc4c(C(C)C)cccc4C(C)C)CC3)oc12
32 | 205 °C | O=C(O)c1ccc(-c2cc3ccccc3[nH]2)cc1
33 | 137 °C | CCC(Cl)C(=O)Nc1c(C(=O)CC(=O)Nc2ccccn2)cccc1C(F)(F)F (stereo not drawn)
34 | 130 to 131 °C | CC(=NC1CCCCC1)Nc1ccccc1C
35 | 198 to 200 °C | Cc1nc2ccc(S(=O)(=O)c3cccc4cnccc34)cc2nc1C
36 | 171 °C | CC(C)(C)OC(=O)[C@@H]1N(S(=O)(=O)c2ccc(O)cc2)CCSC1(C)C
37 | 110 °C | COc1cc(Nc2nccc(Sc3ccccc3)n2)cc(OC)c1OC
38 | 256 °C | Nc1nc(Nc2cccnc2)nn1-c1ccccn1
39 | 174 to 176 °C | Cc1cc(NC(=O)c2ccc(F)cc2)c(C)cc1N
40 | 148 to 150 °C | CCN1C=C(C(=O)O)C(=O)CC1c1ccccc1 (stereo not drawn)

Row | melting point | SMILES
41 | 182 to 183 °C | CCOC(=O)C1=C(C)Nc2ccnn2C1c1ccccc1C(F)(F)F (stereo not drawn)
42 | 133 to 134 °C | CC(C)(Cc1ccc(O)c2ncccc12)[N+](=O)[O-]
43 | 178 to 180 °C | N#CN1CCN(c2nn(S(=O)(=O)c3ccccc3)c3cc(F)ccc23)CC1
44 | 173 °C | FC(F)c1cc(-c2ccc(C(F)(F)F)cc2)nc2cncn12
45 | 202 to 203 °C | Nc1nnc(Sc2ccccc2)s1
46 | 137 to 139 °C | O=C(O)c1cccc2c1CCCc1ccccc1-2
47 | 166 to 167 °C | COc1ccc(C(=O)c2ccc(OCc3nc(-c4ccccc4)oc3C)cc2)c(OC(F)(F)C(=O)O)c1
48 | 205 to 208 °C | Cc1ccccc1CCc1nc2cc(Cl)c(S(N)(=O)=O)cc2[nH]1
49 | 137 to 138 °C | CSc1nnc(-c2ccc3occ(-c4ccccc4Cl)c3c2)o1
50 | 152 °C | Cc1c(-c2ccccc2)nc2n1C(C)(C)Cc1ccccc1C2OC1CCN(C)CC1 (stereo not drawn)
51 | 165 to 166 °C | Cc1ccc(-c2c(Cl)nc(-c3ccccc3)nc2Cl)cc1
52 | 110 to 112 °C | Cn1c2c(ccc1=O)C(NCCc1ccc(Cl)cc1)CCC2 (stereo not drawn)
53 | > 300 °C | O=C1NC(=S)SC1=Cc1ccc2c(c1)N(OCc1ccc(Cl)c(Cl)c1)C(=O)CO2
54 | 120 to 128 °C | CCCn1cc(Cc2ccc(C(=O)NS(=O)(=O)c3ccccc3C)cc2OC)c2cc(CC3CCCN(C)C3=O)ccc21 (stereo not drawn)
55 | 219 to 220 °C | CCOC(=O)C1=C(C)NC2=C(C(=O)OC2)C1c1ccccc1OC (stereo not drawn)
56 | 48 to 50 °C | O=C(Oc1ccc(F)cc1)c1ccccc1
57 | 150 to 152 °C | CNC(=O)C(CCCl)(c1ccccc1)c1ccccc1
58 | 139 to 141 °C | CCCCC(CC)C(=O)Nc1ccc2ccn(Cc3ccc(C(=O)OC)cc3)c2c1 (stereo not drawn)

More lines, now with the values behind:

Row | SMILES | melting point
59 | C=CCn1c(OC)n[nH]c1=O | 111 °C
60 | Clc1cc(Oc2cc(Cl)nc(-c3ccc(Cl)s3)n2)ccn1 | 154 to 156 °C
61 | COc1cc(NS(C)(=O)=O)cc(OC)c1-c1ccc(C[C@H](NC(=O)c2c(Cl)cccc2Cl)C(=O)O)cc1 | 154 to 155 °C
62 | Cc1cccc(N)c1C=C(Br)Br | 42 to 43 °C
63 | CCOC(=O)[C@@H]1OC(c2ccc3c(c2)OCO3)O[C@H]1C(=O)OCC | 39 to 40 °C
64 | CCOCc1nc2c(N)nc3cc(-c4cccnc4)ccc3c2n1CCCCNC(=O)OC(C)(C)C | 117 to 119 °C
65 | FC(F)(F)c1ccc2c(C3CCN(CCCOc4cccc5[nH]ccc45)CC3)c[nH]c2c1 | 92 to 97 °C
66 | O=S(=O)(OC(c1cccc(C(OS(=O)(=O)c2ccc(Cl)cc2)(C(F)(F)F)C(F)(F)F)c1)(C(F)(F)F)C(F)(F)F)c1ccc(Cl)cc1 | 125 °C
67 | COC(=O)C(Cc1ccccc1)NC(=O)C(CC(=O)O)NC(=O)CN (stereo not drawn) (H-Gly-Asp-Phe-OMe; configuration not given here) | 233 to 235 °C
68 | CC(C)(C)c1ccc(COc2cc3c(cc2C(=O)c2ccc(C(=O)O)cc2)C(C)(C)CCC3(C)C)cc1 | 218 to 219 °C
69 | C#CC(CC(=O)OC)c1ccc(OC)c(OC2CCCC2)c1 (racemic) | 41 to 42 °C
70 | CC(C)c1ccc2nc(C(F)(F)F)c(C(=O)O)c(O)c2c1 | 206 °C
71 | Cc1cccc(Nc2cc(Nc3cccc(C)c3)ncn2)c1 | 242 to 244 °C
72 | CCOC(=O)Cc1nc(C)n2c1CN=C(c1ccccc1Cl)c1cc(Cl)ccc1-2 | 143 to 154 °C
73 | CCOC(=O)Cc1sc(Sc2ccc(OC)nn2)nc1C | 47 to 49 °C
74 | CCCCc1oc2ccc(C#N)cc2c1C(=O)c1ccc(O)cc1 | 152 to 153 °C
75 | CCC(=O)OCC1(C)OCC2(CO1)COC(C)(COC(=O)CC)OC2 (stereo not drawn) | 55 to 56 °C
76 | C=CCc1cc(Cc2cnc(N)nc2N)c2cccnc2c1OC | 227 to 228 °C
77 | Cc1cnc2c(c1)C(=O)CC(C)(C)C2 | 232 to 235 °C
78 | Cc1cc(=O)n2nc(C)n(N)c2n1 | 287 to 289 °C

Row | SMILES | melting point
79 | COc1ccc(NC(=O)c2ccc(F)c(F)c2)cc1NS(=O)(=O)c1ccc(C#N)cc1 | 255 to 257 °C
80 | CN(C)C=Nc1[nH]nc(Nc2cccc(Cl)c2)c1C#N | > 260 °C
81 | COc1ccc(NC(=O)Nc2c(C)cc(Oc3ccc4nc(COc5ccc(CC6SC(=O)NC6=O)cc5)n(C)c4c3)cc2C)cc1 (stereo not drawn) | 229 to 231 °C
82 | O=S1(=O)NC(Cl)=Nc2ccc(Cl)cc21 | 242 to 244 °C
83 | CC(C)c1c(Sc2cccc(Cl)c2)nc(CO)n1C | 105 to 106 °C
84 | COc1cc(Nc2c(C#N)cnc3cc4cc(OC)c(OCCN5CCN(C)CC5)cc4cc23)c(Cl)cc1C | 220 to 227 °C
85 | COn1c(C)nc2c(NCc3c(C)cccc3C)cc(Br)cc21 | 171 to 172 °C
86 | CC(C)(C)c1cc(CCc2ccccc2NC(=O)NC(c2ccccc2)c2ccccc2)cc(C(C)(C)C)c1O | 187 °C
87 | CCn1nc(C(F)(F)F)c(CS(=O)(=O)C2=NOC(C)(CCl)C2)c1OC (stereo not drawn) | 139 to 140 °C
88 | Cc1ccc2cccc(OCc3c(Cl)ccc([N+](=O)[O-])c3C#N)c2n1 | 212 to 215 °C
89 | Brc1ccc2[nH]c(-c3ccccc3)c(CCN3CCCCC3)c2c1 | 121 to 122 °C
90 | O=C1N=NC(=O)c2c1[nH]c1cc(Br)ccc21 | 260 °C
91 | CCC(=O)C1=C(O)CC(c2c(C)c(C)c3c(c2C)OC(C)(C)C3)CC1=O (stereo not drawn) | 74 to 76 °C
92 | COc1cc2c(=O)n(CCN3CCCC3)c3c4cc5c(cc4nnc3c2cc1OC)OCO5 | 229 °C
93 | NS(=O)(=O)c1ccc(-c2cn(-c3nc(-c4ccc(C(F)(F)F)cc4)cc(C(F)(F)F)n3)cn2)s1 | 281 °C
94 | CC(C)(C)OC(=O)NCCc1ccc(Oc2c(Cl)cnc(C(F)(F)F)c2Cl)cc1 | 137 to 140 °C
95 | CCCc1c(O)ccc2oc(Cc3ccc(OC)cc3)c(C)c12 | 91 to 93 °C
96 | CC(=O)N(C)c1cc(N)cc(N(C)C(C)=O)c1 | 179 to 181 °C
97 | COC(=O)N(C(S)=NC(C)C)c1c(C(C)C)cccc1C(C)C | 98 to 99 °C
98 | CC(=O)C=Cc1ccc(NS(C)(=O)=O)c(Oc2ccc(F)cc2F)c1 | 130 to 132 °C
